Reference: patent EP3290417A1, “2-CHLORO-N-[2-(1,3-THIAZOL-5-YL)ETHYL]-5-(5-FLUOROPYRIMIDIN-2-YL)-BENZAMIDES AND THEIR USE AS P2X7 RECEPTOR ANTAGONISTS” (AXXAM S.p.A., priority 2016, dated 2018)

Assays:
rat P2X7R = target: T1, rat P2X7R (Rattus norvegicus, UniProt Q64663); assay: rat P2X7 Ca2+ influx assay, Screen Quest Fluo-8 No Wash Calcium Assay Kit (FLIPRTETRA); assay type: cell-based; conditions: HEK-293 cells stably transfected with rat P2X7R; BzATP at ~EC80; 5' incubation with compound; read-out: rP2X7 (IC50; nM)
T1 construct: expressed in transfected cells; host or cells: HEK-293 (stably transfected)
T1 sequence (Q64663 1-595): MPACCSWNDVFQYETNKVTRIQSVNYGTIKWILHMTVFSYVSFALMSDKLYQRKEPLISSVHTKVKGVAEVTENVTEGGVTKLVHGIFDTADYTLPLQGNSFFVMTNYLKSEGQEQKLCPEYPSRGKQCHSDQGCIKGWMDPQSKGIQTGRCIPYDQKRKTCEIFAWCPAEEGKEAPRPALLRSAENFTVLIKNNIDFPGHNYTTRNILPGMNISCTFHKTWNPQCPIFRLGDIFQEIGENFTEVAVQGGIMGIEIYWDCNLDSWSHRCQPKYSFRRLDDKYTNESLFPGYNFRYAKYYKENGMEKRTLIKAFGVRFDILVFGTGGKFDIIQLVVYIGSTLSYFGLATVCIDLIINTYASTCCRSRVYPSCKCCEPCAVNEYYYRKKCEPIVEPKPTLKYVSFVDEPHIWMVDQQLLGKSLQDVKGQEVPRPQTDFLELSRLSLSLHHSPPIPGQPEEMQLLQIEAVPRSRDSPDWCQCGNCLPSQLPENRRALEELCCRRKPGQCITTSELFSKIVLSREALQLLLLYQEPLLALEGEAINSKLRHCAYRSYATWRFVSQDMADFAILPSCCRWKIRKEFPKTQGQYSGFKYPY
Protocol: Ca^2+ influx was measured in HEK-293 cells stably transfected with the receptor using Screen Quest™ Fluo-8 No Wash Calcium Assay Kit (AAt Bioquest®). Briefly, once inside the cells, the lipophilic blocking groups of Fluo-8 are cleaved by non-specific cell esterases, resulting in a negatively-charged fluorescent-dye that stays inside cells. Its fluorescence increases upon binding to calcium. When HEK-293/P2X7 cells were stimulated with BzATP, Ca^2+ entered the cells and the fluorescence of Fluo-8 NW increaseed. The dye absorption spectrum was compatible with excitation at 488 nm by argon laser sources and its emission wavelength was in the range of 515-575 nm. […]
Compounds were tested at FLIPRTETRA according to the following method: • first injection at FLIPRTETRA of 10 µL of 3x test compound (in Tyrode's buffer 0.3 mM Ca^2+ / Mg^2+-free + DMSO 0.5% final concentration) • 5' incubation • second injection at FLIPRTETRA of 15 µL of 3x BzATP at ∼EC80 (in Tyrode's buffer 0.3 mM Ca^2+ / Mg^2+-free + BSA 0.0003% final concentration) • Fluorescence recording for 3' […]
The effect of the test compounds was measured as percent inhibition vs the reference antagonist and IC50 values were calculated accordingly.

human P2X7 channel = target: T2, human P2X7 channel (Homo sapiens, UniProt Q99572); assay: human P2X7 channel assay by automated patch-clamp (QPatch16X, whole-cell voltage clamp); assay type: cell-based; conditions: HEK-293 cells expressing the P2X7 channels; current evoked by 100 microM BzATP; held at -80 mV; room temperature; read-out: hP2X7 (IC50; nM)
T2 construct: expressed in transfected cells; host or cells: HEK-293
T2 sequence (Q99572 1-595): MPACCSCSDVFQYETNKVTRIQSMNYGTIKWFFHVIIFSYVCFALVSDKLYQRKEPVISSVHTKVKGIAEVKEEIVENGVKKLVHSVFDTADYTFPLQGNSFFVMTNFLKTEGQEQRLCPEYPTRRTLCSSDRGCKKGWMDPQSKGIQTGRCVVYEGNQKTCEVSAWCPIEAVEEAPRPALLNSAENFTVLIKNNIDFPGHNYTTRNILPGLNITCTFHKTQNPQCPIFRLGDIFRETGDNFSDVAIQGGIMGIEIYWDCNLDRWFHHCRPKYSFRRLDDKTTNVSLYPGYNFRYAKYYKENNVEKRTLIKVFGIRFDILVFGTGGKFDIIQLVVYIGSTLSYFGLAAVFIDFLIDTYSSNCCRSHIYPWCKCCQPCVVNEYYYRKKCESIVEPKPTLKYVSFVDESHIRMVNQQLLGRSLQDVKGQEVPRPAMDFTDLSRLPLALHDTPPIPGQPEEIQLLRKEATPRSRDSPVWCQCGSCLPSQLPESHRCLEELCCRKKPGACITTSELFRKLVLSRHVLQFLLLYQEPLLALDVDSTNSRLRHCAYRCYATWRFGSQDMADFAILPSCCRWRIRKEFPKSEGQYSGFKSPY
Protocol: In order to directly monitor the block of P2X7 channel, an electrophysiological assay was developed and implemented on the QPatch16X automated electrophysiology instrument.
HEK-293 cells expressing the P2X7 channels were cultured in modified EMEM.
72 hours before experiment, 5 million cells were seeded onto T225 flasks. Just before the experiment cells were washed twice, detached from the flask with trypsin-EDTA, re-suspended in the suspension solution and placed on the QPatch 16x.
The compounds (20 mM in a 100% DMSO) stored at -20°C were prepared the day of the experiment (a first dilution 1:20 in 100% DMSO to prepare a 1 mM stock solution, then a 1 microM solution in external solution + a serial dilution 1:10).
The standard whole-cell voltage clamp experiments were performed at room temperature. For these experiments the multihole technology was used and the data were sampled at 2 KHz.
The intracellular solution contained (mM) 135 CsF, 10 NaCl, 1 EGTA, 10 HEPES, (pH 7.2 with CsOH) whereas the extracellular contained (mM) 145 NaCl, 4 KCl, 0.5 MgCl2, 1 CaCl2, 10 HEPES, 10 Glc (pH 7.4 with NaOH).
After establishment of the seal and the passage in the whole cell configuration, the cells were held at -80 mV. The P2XR7 current was evoked by applying 100 microM of BzATP alone (4 times) and then in the presence increasing concentrations of the compound under investigation (1, 10, 100 and 1000 nM).
The pre-incubation periods 5 to 8 contain increasing concentrations of the compound of interest (1, 10, 100 and 1000 nM), as illustrated in Figure.
The maximal inward current evoked by BzATP in absence or presence of increasing concentrations of the compounds under investigation was measured and normalized. The potential modulatory effect was measured as % of control and as IC50 determined fitting the dose-response curves data with the following equation: Y = 100/(1+10^(∧)((LogIC50−X)*HillSlope)) [formula] where: • X: log of concentration • Y: normalized response, 100% down to 0%, decreasing as X increases. • LogIC50: same log units as X • HillSlope: slope factor or HS, unitless

[1] = metabolic stability in mouse liver microsomes; assay type: in vitro ADME; conditions: 1 µM test compound, 1 mg/mL protein, pH 7.4, 0-60 minutes
Protocol: In vitro evaluation of test compounds for metabolic stability using Rat or Mouse liver
Test System Rat or Mouse Liver Microsomes
• Test compound concentration: 1 µM • Time Points: 0, 5, 10, 30 and 60 minutes • Final Protein concentration: 1 mg/mL • Number of Replicates: Two • Potassium Phosphate Buffer pH 7.4 100 mM • End Point: % Remaining of Test compound, Half life, Clint • Bioanalysis by LC-MS/MS
10 mM stock solution of test compound were prepared in DMSO and dilute with water: acetonitrile (1:1) to a concentration of 1 mM. Working concentration of 100 µM were prepared by further dilution with water: acetonitrile (1: 1).
100 mL of Milli Q water will be added to K2HPO4 (1.398 g) and KH2PO4 (0.27 g) to get final pH 7.4.
Preincubation mixtures: 2.5 µL Test Cpd. + 75 µL Liver microsomes @ 3.33 mg/mL + 85 µL of 100 mM potassium phosphate buffer (Preincubate for 10 min @ 37°C)
60 min w/o cofactor: 32.5 µL of Preincubation mixture + 17.5 µL of 100 mM potassium phosphate buffer (Incubate for 60 min @ 37°C)
0 min sample: 16.25 µL of Preincubation mixture + 200 µL of acetonitrile containing internal standard + 8.75 µL of cofactor Incubation mixture 62 µL of cofactor (2.5 mM) + Remaining incubation mixture (Incubated for 60 min@ 37°C).
Sample preparation: 25 µL incubation mixture + 200 µL of acetonitrile containing internal standard + Vortex 5 min @ 1200 rpm + Centrifuge 10 min @ 4000 rpm. […]

Row | Compound | IC50 (rat P2X7R) [nM] | IC50 (human P2X7 channel) [nM] | Mouse Liver Microsomal Clearance (Cli; µL/min/mg) [1] [µL/min/mg]
1 | O=C(NCC(c1cnc(C(F)F)s1)N1CCOCC1)c1cc(-c2ncc(F)cn2)ccc1Cl (single isomer, unassigned; (-)) [Compound 3, (-)-2-chloro-N-{2-[2-(difluoromethyl)-1,3-thiazol-5-yl]-2-(morpholin-4-yl)ethyl}-5-(5-fluoropyrimidin-2-yl)benzamide] | 48 | 27 | –
2 | 2-chloro-N-{2-[4-(cyclopropyl)-1,3-thiazol-5-yl]-2-(4,4-difluoropiperidin-1-yl)ethyl}-5-(5-fluoropyrimidin-2-yl)benzamide [Compound 4] | – | 103 | –
3 | O=C(NCC(c1scnc1CO)N1CCC(F)(F)CC1)c1cc(-c2ncc(F)cn2)ccc1Cl (centres unmarked) [Compound 5, 2-chloro-N-{2-[4-(hydroxymethyl)-1,3-thiazol-5-yl]-2-(4,4-difluoropiperidin-1-yl)ethyl}-5-(5-fluoropyrimidin-2-yl)benzamide] | – | 64.6 | –
4 | O=C(NCC(c1scnc1CF)N1CCC(F)(F)CC1)c1cc(-c2ncc(F)cn2)ccc1Cl (centres unmarked) [Compound 6, 2-chloro-N-{2-[4-(fluoromethyl)-1,3-thiazol-5-yl]-2-(4,4-difluoropiperidin-1-yl)ethyl}-5-(5-fluoropyrimidin-2-yl)benzamide] | – | 33.3 | 47.3
5 | C#Cc1ncc(C(CNC(=O)c2cc(-c3ncc(F)cn3)ccc2Cl)N2CCC(F)(F)CC2)s1 (centres unmarked) [Compound 9, 2-chloro-N-[2-(4,4-difluoropiperidin-1-yl)-2-(2-ethynyl-1,3-thiazol-5-yl)ethyl]-5-(5-fluoropyrimidin-2-yl)benzamide] | – | 39.2 | –
6 | O=C(NCC(c1cnc(CF)s1)N1CCC(F)(F)CC1)c1cc(-c2ncc(F)cn2)ccc1Cl (centres unmarked) [Compound 8, 2-chloro-N-{2-[2-(fluoromethyl)-1,3-thiazol-5-yl]-2-(4,4-difluoropiperidin-1-yl)ethyl}-5-(5-fluoropyrimidin-2-yl)benzamide] | – | 20.3 | –
7 | O=C(NCC(c1cnc(C(F)F)s1)N1CCOCC1)c1cc(-c2ncc(F)cn2)ccc1Cl (racemic) [Compound 1, (±)-2-chloro-N-{2-[2-(difluoromethyl)-1,3-thiazol-5-yl]-2-(morpholin-4-yl)ethyl}-5-(5-fluoropyrimidin-2-yl)benzamide] | 66 | 47.1 | –
8 | O=C(NCC(c1cnc(CF)s1)N1CCOCC1)c1cc(-c2ncc(F)cn2)ccc1Cl (centres unmarked) [Compound 7, 2-chloro-N-{2-[2-(fluoromethyl)-1,3-thiazol-5-yl]-2-(morpholin-4-yl)ethyl}-5-(5-fluoropyrimidin-2-yl)benzamide] | – | 38.3 | –
